Measurements published in publication PMC4789767, “Application of linker technique to trap transiently interacting protein complexes for structural studies” (Journal of Biological Methods, 2016).

What was measured:
[1] = system: C-lobe of CaM; conditions: previous findings; ref [34]-[36]; cited from earlier work
Excerpt: The Gly-linker strategy has been previously used to stabilize various protein complexes for structural studies. We have adopted this procedure to determine the crystal structure of CaM in complex with two of its intrinsically unstructured binding partners, Nm and Ng, and further validated the findings in vitro and in vivo [19]. We identified the MBR of Nm and Ng that interacted with CaM using ITC experiments using various peptide lengths of Nm/Ng. […] We employed known s ...

[2] = system: CaM; experiment: ITC: binding of MBR (IQ motif) peptides to CaM; conditions: VP-ITC, 25°C, 10 µM CaM in cell, 150 µM IQ peptide in syringe, Buffer A: 20 mM imidazole pH 8.0, 100 mM NaCl, 2 mM EGTA, in words, Fig. 3B vs 3A
Experimental: Different lengths of Nm and Ng IQ motif peptides were commercially synthesized and obtained from GL BiochemLtd (Shanghai, China). Stock solutions of 1 mM of Nm/Ng IQ peptides were prepared by dissolving the appropriate amount of peptide in 20 mM imidazole pH 8.0, 100 mM NaCl and 2 mM EGTA (Buffer A). After mixing, the peptide stock solutions were stored at 4°C to ensure complete peptide solubility. The choice of buffer is based on obtaining maximum solubility of the peptides. NOTE: Synthetically derived peptides should be verified for solubility when dissolved in a buffer of interest. Sometimes preparing high concentrations of peptide stock solution may result in precipitation. Lower concentrations of stock solutions can be prepared to avoid this problem.
• 1. ITC assay: Identification of MBR (minimum binding region) from Nm and Ng. • 1.1. Wildtype (WT) CaM, Nm and Ng are purified, as described previously. • 1.2. Prepare 10 µM of full length Nm/Ng and 150 µM of CaM in Buffer A (Recipes). The Schematic representation of the ITC experimental setup is depicted in Figure 2A. • 1.3. Degas all solutions for 10–20 min using a vacuum pump and centrifuge in order to avoid bubble formation in the sample cell during the experiment. • 1.4. […]

Substance: Nm: Full-length Neuromodulin (accession no NP_032109), intrinsically disordered neuron-specific substrate protein
- interaction site on CaM [1]: interacted with the C-lobe of CaM

Substance: Ng: Full-length Neurogranin (accession no NP_071312), intrinsically disordered neuron-specific substrate protein
- interaction site on CaM [1]: interacted with the C-lobe of CaM

Substance: Minimum Binding Region (MBR) peptide of Nm: Optimized minimum binding region peptide (IQ motif) of Neuromodulin; commercially synthesized
- binding with CaM compared with full length Nm [2]: mimics full length Nm in terms of binding with CaM
